Reference: patent publication US4349546A, “D-Allose derivative and preparation method therefor” (Wakamoto Pharmaceutical Co., Ltd., priority 1980, dated 1982)

Tested on: β-16 melanoma cells
Assay: Test of therapeutical effects on melanoma (Test Example 4)
Assay type: in vivo, BDF mice
Details: for Number of survivals: 60 days

With `O=NN(CCCl)C(=O)N[C@@H]1[C@H](O)[C@@H](CO)OC(O)[C@@H]1O` (stereo partly drawn) [CNUA, 3-[3-(2-chloroethyl)-3-nitrosoureido]-3-deoxy-D-allose] the “ILS (rate of apothanasia)” value (1.12 mg/kg/day, day 1-9, ip) was 10%, the “ILS (rate of apothanasia)” value (2.23 mg/kg/day, day 1-9, ip) was 25% and the “ILS (rate of apothanasia)” value (4.45 mg/kg/day, day 1-9, ip) was 30%. The “ILS (rate of apothanasia)” value (5 mg/kg/day, day 1, ip) was 0%, the “ILS (rate of apothanasia)” value (6.67 mg/kg/day, day 1-9, ip) was 35% and the “ILS (rate of apothanasia)” value (10 mg/kg/day, day 1, ip) was 16%. For the same compound, the “ILS (rate of apothanasia)” value (20 mg/kg/day, day 1, ip) was 48%, the “ILS (rate of apothanasia)” value (20 mg/kg/day, day 1, iv) was 65% and the “ILS (rate of apothanasia)” value (40 mg/kg/day, day 1, ip) was 60%. For the same compound, the “ILS (rate of apothanasia)” value (40 mg/kg/day, day 1, iv) was 155%, the “ILS (rate of apothanasia)” value (60 mg/kg/day, day 1, iv) was 35% and the Number of survivals (1.12 mg/kg/day, day 1-9, ip) was 0/7. The Number of survivals (2.23 mg/kg/day, day 1-9, ip) was 0/7, the Number of survivals (4.45 mg/kg/day, day 1-9, ip) was 0/7 and the Number of survivals (5 mg/kg/day, day 1, ip) was 0/7. The Number of survivals (6.67 mg/kg/day, day 1-9, ip) was 0/7, the Number of survivals (10 mg/kg/day, day 1, ip) was 0/7 and the Number of survivals (20 mg/kg/day, day 1, ip) was 1/7. For the same compound, the Number of survivals (20 mg/kg/day, day 1, iv) was 1/7, the Number of survivals (40 mg/kg/day, day 1, ip) was 2/7 and the Number of survivals (40 mg/kg/day, day 1, iv) was 1/7. For the same compound, the Number of survivals (60 mg/kg/day, day 1, iv) was 0/7.
